Results from ChEMBL document CHEMBL5505966, “Synthesis and pharmacological characterization of conformationally restricted 2-amino-Adipic acid analogs and carboxycyclopropyl glycines as selective metabotropic glutamate 2 receptor agonists” (Eur J Med Chem, 2024).
Active and inactive are the calls of the source. The calls are words filed in the database; no cut-off is given here.

Legend:
[1] = target: Metabotropic glutamate receptor 8 (Rattus norvegicus) (UniProt P70579); assay: Agonist activity at rat mGluR8 receptor expressed in HEK293 cells at 30 uM by IP-1 HTRF assay; format: functional, cell-based
[2] = target: Metabotropic glutamate receptor 7 (Rattus norvegicus) (UniProt P35400); assay: Antagonist activity at rat mGluR7 receptor expressed in HEK293 cells by IP-1 HTRF assay; format: functional, cell-based
[3] = target: Metabotropic glutamate receptor 1 (Rattus norvegicus) (UniProt P23385); assay: Agonist activity at rat mGluR1 receptor expressed in HEK293 cells at 30 uM by IP-1 HTRF assay; format: functional, cell-based
Sequence of Metabotropic glutamate receptor 1 (Rattus norvegicus) (P23385 19-1199 limits assumed): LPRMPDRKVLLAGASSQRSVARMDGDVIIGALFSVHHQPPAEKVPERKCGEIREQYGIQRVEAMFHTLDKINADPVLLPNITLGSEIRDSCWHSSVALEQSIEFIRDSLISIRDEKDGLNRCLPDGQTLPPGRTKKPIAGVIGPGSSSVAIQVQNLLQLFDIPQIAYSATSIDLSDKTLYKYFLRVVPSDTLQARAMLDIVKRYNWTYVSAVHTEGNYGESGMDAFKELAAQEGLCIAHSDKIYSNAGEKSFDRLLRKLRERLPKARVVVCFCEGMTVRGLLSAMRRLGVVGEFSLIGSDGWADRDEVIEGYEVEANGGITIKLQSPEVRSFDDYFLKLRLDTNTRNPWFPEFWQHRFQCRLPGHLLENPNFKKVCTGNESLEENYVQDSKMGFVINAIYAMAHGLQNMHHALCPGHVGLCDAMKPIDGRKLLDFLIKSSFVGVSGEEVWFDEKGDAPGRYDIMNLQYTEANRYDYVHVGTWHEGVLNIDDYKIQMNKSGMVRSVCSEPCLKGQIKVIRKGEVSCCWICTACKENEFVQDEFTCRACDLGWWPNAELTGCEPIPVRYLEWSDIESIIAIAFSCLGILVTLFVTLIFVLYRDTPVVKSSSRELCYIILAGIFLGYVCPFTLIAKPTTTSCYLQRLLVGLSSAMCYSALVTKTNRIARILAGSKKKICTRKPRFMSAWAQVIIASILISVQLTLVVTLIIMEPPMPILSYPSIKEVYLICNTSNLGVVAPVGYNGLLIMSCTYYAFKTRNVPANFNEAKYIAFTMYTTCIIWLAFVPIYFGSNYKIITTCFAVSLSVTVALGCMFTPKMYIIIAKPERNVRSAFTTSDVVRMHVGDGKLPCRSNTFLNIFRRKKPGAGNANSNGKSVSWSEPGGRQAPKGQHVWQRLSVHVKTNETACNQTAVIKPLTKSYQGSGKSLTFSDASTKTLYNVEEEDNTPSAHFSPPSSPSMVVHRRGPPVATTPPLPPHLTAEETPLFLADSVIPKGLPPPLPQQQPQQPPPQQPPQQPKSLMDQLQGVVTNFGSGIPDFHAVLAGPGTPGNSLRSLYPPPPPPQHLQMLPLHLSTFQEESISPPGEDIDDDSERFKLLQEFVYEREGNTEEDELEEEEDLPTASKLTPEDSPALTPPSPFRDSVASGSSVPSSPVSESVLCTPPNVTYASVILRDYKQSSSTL

[4] = target: Metabotropic glutamate receptor 4 (Rattus norvegicus) (UniProt P31423); assay: Antagonist activity at rat mGluR4 receptor expressed in HEK293 cells by IP-1 HTRF assay; format: functional, cell-based
Sequence of Metabotropic glutamate receptor 4 (Rattus norvegicus) (P31423 whole entry): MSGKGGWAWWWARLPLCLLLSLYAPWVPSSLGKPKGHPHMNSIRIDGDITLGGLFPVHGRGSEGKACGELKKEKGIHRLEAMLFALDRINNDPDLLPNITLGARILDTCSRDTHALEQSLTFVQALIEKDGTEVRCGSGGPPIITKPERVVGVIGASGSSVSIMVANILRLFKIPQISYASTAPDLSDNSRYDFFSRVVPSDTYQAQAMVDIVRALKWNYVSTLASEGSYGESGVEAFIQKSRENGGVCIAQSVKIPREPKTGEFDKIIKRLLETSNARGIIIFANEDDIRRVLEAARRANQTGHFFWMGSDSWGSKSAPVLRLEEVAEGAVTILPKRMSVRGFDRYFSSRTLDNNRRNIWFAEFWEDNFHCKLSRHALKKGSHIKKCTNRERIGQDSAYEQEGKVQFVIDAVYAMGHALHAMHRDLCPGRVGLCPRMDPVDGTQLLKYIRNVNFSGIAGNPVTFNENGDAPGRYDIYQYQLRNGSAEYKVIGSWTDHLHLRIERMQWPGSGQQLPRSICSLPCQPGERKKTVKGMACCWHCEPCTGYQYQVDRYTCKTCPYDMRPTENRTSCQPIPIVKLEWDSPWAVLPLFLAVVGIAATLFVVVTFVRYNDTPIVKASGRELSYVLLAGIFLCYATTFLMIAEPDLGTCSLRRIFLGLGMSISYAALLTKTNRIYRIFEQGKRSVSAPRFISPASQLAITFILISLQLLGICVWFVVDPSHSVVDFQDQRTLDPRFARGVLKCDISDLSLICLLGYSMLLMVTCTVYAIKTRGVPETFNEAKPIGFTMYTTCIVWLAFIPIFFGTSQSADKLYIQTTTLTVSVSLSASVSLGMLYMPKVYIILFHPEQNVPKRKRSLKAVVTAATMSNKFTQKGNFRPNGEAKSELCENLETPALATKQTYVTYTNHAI

[5] = target: Metabotropic glutamate receptor 2 (Rattus norvegicus) (UniProt P31421); assay: Agonist activity at rat mGluR2 receptor expressed in HEK293 cells at 30 uM by IP-1 HTRF assay; format: functional, cell-based
[6] = target: Metabotropic glutamate receptor 5 (Rattus norvegicus) (UniProt P31424); assay: Antagonist activity at rat mGluR5 receptor expressed in HEK293 cells by IP-1 HTRF assay; format: functional, cell-based
Sequence of Metabotropic glutamate receptor 5 (Rattus norvegicus) (P31424 21-1203 limits assumed): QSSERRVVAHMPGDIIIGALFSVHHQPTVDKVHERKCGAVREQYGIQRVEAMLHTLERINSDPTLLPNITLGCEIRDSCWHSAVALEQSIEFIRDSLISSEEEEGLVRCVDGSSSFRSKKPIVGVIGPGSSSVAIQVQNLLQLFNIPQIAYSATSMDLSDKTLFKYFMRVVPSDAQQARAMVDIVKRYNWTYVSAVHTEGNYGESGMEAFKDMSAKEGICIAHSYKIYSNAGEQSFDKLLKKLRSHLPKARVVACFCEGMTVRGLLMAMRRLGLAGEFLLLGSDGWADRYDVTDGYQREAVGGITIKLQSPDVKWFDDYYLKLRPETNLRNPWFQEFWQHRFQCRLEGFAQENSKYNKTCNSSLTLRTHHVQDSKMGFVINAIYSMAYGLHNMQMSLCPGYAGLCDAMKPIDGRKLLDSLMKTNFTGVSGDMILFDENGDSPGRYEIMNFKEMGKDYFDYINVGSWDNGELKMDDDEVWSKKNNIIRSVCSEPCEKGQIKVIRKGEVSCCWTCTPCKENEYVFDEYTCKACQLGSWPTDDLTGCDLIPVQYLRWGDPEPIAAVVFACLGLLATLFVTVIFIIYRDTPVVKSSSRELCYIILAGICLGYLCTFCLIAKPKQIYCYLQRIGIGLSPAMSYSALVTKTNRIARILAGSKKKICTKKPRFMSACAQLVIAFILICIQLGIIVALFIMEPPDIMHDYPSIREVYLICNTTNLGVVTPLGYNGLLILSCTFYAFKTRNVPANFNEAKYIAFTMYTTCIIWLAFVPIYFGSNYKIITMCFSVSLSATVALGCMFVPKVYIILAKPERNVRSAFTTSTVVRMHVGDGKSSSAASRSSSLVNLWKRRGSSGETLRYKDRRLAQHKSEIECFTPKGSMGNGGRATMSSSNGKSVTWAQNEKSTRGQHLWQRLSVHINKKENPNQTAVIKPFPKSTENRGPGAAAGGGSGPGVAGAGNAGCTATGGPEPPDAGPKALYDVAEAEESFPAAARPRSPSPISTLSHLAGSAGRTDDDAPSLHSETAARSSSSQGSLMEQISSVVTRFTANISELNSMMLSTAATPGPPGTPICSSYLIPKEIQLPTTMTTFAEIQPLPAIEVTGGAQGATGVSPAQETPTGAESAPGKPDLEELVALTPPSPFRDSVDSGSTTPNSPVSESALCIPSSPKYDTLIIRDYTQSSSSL

[7] = target: Metabotropic glutamate receptor 5 (Rattus norvegicus) (UniProt P31424); assay: Agonist activity at rat mGluR5 receptor expressed in HEK293 cells at 30 uM by IP-1 HTRF assay; format: functional, cell-based
[8] = target: Metabotropic glutamate receptor 3 (Rattus norvegicus) (UniProt P31422); assay: Agonist activity at rat mGluR3 receptor expressed in HEK293 cells at 30 uM by IP-1 HTRF assay; format: functional, cell-based
[9] = target: Metabotropic glutamate receptor 3 (Rattus norvegicus) (UniProt P31422); assay: Antagonist activity at rat mGluR3 receptor expressed in HEK293 cells by IP-1 HTRF assay; format: functional, cell-based
[10] = target: Metabotropic glutamate receptor 8 (Rattus norvegicus) (UniProt P70579); assay: Antagonist activity at rat mGluR8 receptor expressed in HEK293 cells by IP-1 HTRF assay; format: functional, cell-based
[11] = target: Metabotropic glutamate receptor 2 (Rattus norvegicus) (UniProt P31421); assay: Antagonist activity at rat mGluR2 receptor expressed in HEK293 cells by IP-1 HTRF assay; format: functional, cell-based
[12] = target: Metabotropic glutamate receptor 6 (Rattus norvegicus) (UniProt P35349); assay: Antagonist activity at rat mGluR6 receptor expressed in HEK293 cells by IP-1 HTRF assay; format: functional, cell-based
Sequence of Metabotropic glutamate receptor 6 (Rattus norvegicus) (P35349 whole entry): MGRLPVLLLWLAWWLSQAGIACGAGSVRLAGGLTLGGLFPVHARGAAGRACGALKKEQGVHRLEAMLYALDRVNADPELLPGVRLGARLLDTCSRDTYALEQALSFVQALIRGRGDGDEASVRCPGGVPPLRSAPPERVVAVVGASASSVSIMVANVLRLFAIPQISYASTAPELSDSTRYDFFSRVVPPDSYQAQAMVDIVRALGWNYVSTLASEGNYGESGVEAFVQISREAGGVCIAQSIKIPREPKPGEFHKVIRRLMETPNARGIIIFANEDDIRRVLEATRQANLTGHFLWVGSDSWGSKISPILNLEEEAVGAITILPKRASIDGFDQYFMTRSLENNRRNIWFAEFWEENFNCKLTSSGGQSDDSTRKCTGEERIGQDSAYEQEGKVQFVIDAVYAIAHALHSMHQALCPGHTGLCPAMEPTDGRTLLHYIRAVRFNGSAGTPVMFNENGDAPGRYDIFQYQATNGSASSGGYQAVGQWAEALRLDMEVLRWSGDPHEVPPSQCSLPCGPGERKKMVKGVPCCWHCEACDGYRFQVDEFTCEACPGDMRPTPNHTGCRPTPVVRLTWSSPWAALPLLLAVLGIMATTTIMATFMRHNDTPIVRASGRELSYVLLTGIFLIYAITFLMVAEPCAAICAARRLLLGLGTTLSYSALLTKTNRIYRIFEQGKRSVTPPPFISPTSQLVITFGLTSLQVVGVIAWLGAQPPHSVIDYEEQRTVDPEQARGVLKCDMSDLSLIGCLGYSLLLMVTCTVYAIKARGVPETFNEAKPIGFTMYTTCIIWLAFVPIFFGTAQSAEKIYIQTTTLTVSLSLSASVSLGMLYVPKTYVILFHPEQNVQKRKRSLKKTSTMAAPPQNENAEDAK

[13] = target: Metabotropic glutamate receptor 7 (Rattus norvegicus) (UniProt P35400); assay: Agonist activity at rat mGluR7 receptor expressed in HEK293 cells at 30 uM by IP-1 HTRF assay; format: functional, cell-based
[14] = target: Metabotropic glutamate receptor 1 (Rattus norvegicus) (UniProt P23385); assay: Antagonist activity at rat mGluR1 receptor expressed in HEK293 cells by IP-1 HTRF assay; format: functional, cell-based
[15] = target: Metabotropic glutamate receptor 4 (Rattus norvegicus) (UniProt P31423); assay: Agonist activity at rat mGluR4 receptor expressed in HEK293 cells at 30 uM by IP-1 HTRF assay; format: functional, cell-based
[16] = target: Metabotropic glutamate receptor 6 (Rattus norvegicus) (UniProt P35349); assay: Agonist activity at rat mGluR6 receptor expressed in HEK293 cells at 30 uM by IP-1 HTRF assay; format: functional, cell-based
[17] = target: Metabotropic glutamate receptor 2 (Homo sapiens, UniProt Q14416); assay: Agonist activity at human recombinant mGluR2 receptor assessed as inhibition of forskolin-stimulated [3H]cAMP accumulation incubated for 20 mins by SPA kit analysis; format: functional
[18] = target: Metabotropic glutamate receptor 3 (Homo sapiens, UniProt Q14832); assay: Agonist activity at human recombinant mGluR3 receptor assessed as inhibition of forskolin-stimulated [3H]cAMP accumulation incubated for 20 mins by SPA kit analysis; format: functional
Sequence of Metabotropic glutamate receptor 3 (Q14832 whole entry): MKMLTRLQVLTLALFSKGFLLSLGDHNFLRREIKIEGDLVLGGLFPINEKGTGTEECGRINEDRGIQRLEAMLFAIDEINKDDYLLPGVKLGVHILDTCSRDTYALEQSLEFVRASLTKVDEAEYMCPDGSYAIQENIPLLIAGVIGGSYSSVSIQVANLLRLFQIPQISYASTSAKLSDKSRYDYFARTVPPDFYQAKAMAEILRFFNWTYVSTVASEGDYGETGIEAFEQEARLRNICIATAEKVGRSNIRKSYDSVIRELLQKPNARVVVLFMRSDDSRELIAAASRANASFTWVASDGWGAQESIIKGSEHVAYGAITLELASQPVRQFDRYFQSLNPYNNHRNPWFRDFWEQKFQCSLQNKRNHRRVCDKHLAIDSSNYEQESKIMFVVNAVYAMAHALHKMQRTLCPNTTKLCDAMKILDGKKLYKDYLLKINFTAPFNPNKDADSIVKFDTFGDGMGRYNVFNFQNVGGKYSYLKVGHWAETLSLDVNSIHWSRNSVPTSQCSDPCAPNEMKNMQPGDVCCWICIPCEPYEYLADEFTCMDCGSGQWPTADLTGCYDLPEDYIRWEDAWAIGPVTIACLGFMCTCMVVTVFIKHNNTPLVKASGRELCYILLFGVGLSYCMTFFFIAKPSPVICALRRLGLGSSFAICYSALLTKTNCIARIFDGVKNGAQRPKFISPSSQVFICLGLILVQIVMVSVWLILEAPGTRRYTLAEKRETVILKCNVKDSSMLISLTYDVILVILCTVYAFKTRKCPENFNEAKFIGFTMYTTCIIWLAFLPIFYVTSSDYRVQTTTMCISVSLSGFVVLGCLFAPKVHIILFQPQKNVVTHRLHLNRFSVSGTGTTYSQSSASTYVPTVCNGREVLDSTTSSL

[19] = target: Metabotropic glutamate receptor 7 (Rattus norvegicus) (UniProt P35400); assay: Agonist activity at rat mGluR7 receptor expressed in HEK293 cells at 100 uM by IP-1 HTRF assay; format: functional, cell-based
[20] = target: Metabotropic glutamate receptor 1 (Rattus norvegicus) (UniProt P23385); assay: Agonist activity at rat mGluR1 receptor expressed in HEK293 cells at 100 uM by IP-1 HTRF assay; format: functional, cell-based
[21] = target: Metabotropic glutamate receptor 2 (Rattus norvegicus) (UniProt P31421); assay: Agonist activity at rat mGluR2 receptor expressed in HEK293 cells at 100 uM by IP-1 HTRF assay; format: functional, cell-based
[22] = target: Metabotropic glutamate receptor 5 (Rattus norvegicus) (UniProt P31424); assay: Agonist activity at rat mGluR5 receptor expressed in HEK293 cells at 100 uM by IP-1 HTRF assay; format: functional, cell-based
[23] = target: Metabotropic glutamate receptor 4 (Rattus norvegicus) (UniProt P31423); assay: Agonist activity at rat mGluR4 receptor expressed in HEK293 cells at 100 uM by IP-1 HTRF assay; format: functional, cell-based
[24] = target: Metabotropic glutamate receptor 6 (Rattus norvegicus) (UniProt P35349); assay: Agonist activity at rat mGluR6 receptor expressed in HEK293 cells at 100 uM by IP-1 HTRF assay; format: functional, cell-based
[25] = target: Metabotropic glutamate receptor 8 (Rattus norvegicus) (UniProt P70579); assay: Agonist activity at rat mGluR8 receptor expressed in HEK293 cells at 100 uM by IP-1 HTRF assay; format: functional, cell-based
[26] = target: Metabotropic glutamate receptor 3 (Rattus norvegicus) (UniProt P31422); assay: Agonist activity at rat mGluR3 receptor expressed in HEK293 cells at 100 uM by IP-1 HTRF assay; format: functional, cell-based
[27] = target: Metabotropic glutamate receptor 2 (Rattus norvegicus, UniProt P31421); assay: Agonist activity at rat mGluR2 receptor expressed in HEK293 cells by IP-1 HTRF assay; format: functional, cell-based

Row | inhibition [2] | inhibition [4] | inhibition [6] | inhibition [9] | inhibition [10] | inhibition [11] | inhibition [12] | inhibition [14] | EC50 [18] [µM] | SMILES | further results
1 | inactive | inactive | inactive | inactive | inactive | inactive | inactive | inactive |  | C[C@]1(C[C@H](N)C(=O)O)C[C@H]1C(=O)O | Activity [1]: inactive; Activity [3]: inactive; Activity [5]: inactive; Activity [7]: inactive; Activity [8]: inactive; Activity [13]: inactive; Activity [15]: inactive; Activity [16]: inactive
2 |  |  |  |  |  |  |  |  | 0.6 | N[C@H](C(=O)O)[C@H]1C[C@@H]1C(=O)O | EC50 [17]: 0.3 µM
3 |  |  |  |  |  |  |  |  | 0.038 | N[C@H](C(=O)O)[C@H]1[C@@H](CO)[C@@H]1C(=O)O | 
4 | inactive | inactive | inactive | inactive | inactive | inactive | inactive | inactive |  | N[C@@H](C[C@H]1C[C@@H]1C(=O)O)C(=O)O | Activity [19]: inactive; Activity [20]: inactive; Activity [21]: inactive; Activity [22]: inactive; Activity [23]: inactive; Activity [24]: inactive; Activity [25]: inactive; Activity [26]: inactive
5 | inactive | inactive | inactive | inactive | inactive | inactive | inactive | inactive |  | C[C@@]1(C[C@H](N)C(=O)O)C[C@H]1C(=O)O | Activity [1]: inactive; Activity [3]: inactive; Activity [5]: inactive; Activity [7]: inactive; Activity [8]: inactive; Activity [13]: inactive; Activity [15]: inactive; Activity [16]: inactive
6 |  |  |  |  |  |  |  |  | 9 | N[C@@H](CCC(=O)O)C(=O)O [GLUTAMIC ACID] | 
7 | inactive | inactive | inactive | inactive | inactive | inactive | inactive | inactive |  | C[C@@]1(C(=O)O)C[C@@H]1C[C@H](N)C(=O)O (mixture of isomers) | Activity [19]: inactive; Activity [20]: inactive; Activity [22]: inactive; Activity [23]: inactive; Activity [24]: inactive; EC50 ([27]; read-out: EC50): 10 µM; EC50 ([27]; read-out: pEC50 (converted)): 15.8 µM; Activity [25]: inactive; Activity [26]: inactive
